Results reported in US12030878B2 (BRISTOL-MYERS SQUIBB COMPANY, priority 2017, dated 2024).

Tests used:
Assay type in all cases: cell-based
[1] = molecular target: T1, human TLR9 (Homo sapiens, UniProt Q9NR96); test: TLR9 inhibition reporter assay (HEK-Blue SEAP); settings: HEK-Blue cells overexpressing human TLR9, stimulated with ODN2006 5 nM, 22 hour incubation
T1 construct: host or cells: HEK-Blue cells
T1 sequence (Q9NR96 26-1032): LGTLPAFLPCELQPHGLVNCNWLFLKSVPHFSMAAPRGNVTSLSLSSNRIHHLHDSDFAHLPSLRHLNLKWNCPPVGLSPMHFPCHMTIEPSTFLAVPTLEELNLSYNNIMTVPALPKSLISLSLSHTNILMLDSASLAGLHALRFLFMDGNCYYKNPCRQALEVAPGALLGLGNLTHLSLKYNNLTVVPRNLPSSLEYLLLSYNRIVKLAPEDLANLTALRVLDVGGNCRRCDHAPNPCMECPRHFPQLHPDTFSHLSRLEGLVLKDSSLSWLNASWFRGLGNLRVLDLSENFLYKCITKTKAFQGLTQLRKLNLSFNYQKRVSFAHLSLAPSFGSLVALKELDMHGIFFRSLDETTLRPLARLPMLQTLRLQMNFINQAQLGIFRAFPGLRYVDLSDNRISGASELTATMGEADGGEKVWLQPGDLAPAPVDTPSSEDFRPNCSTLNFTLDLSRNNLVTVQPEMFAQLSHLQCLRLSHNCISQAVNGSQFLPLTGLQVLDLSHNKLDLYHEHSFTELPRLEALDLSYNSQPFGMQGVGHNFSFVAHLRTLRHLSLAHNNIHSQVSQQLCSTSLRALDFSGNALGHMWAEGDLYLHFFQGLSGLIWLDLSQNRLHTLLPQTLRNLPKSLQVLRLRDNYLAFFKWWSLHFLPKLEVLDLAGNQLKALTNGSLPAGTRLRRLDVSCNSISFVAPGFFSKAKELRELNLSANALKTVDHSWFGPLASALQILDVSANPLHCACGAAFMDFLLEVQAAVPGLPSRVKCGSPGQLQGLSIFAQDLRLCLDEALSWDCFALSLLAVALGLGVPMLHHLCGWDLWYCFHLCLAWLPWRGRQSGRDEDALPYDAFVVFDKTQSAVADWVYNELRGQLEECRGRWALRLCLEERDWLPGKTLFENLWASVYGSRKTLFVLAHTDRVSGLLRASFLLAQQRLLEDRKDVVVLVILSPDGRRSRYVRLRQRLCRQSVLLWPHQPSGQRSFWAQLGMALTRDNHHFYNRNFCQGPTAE
Summary of the method: (§1)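 Test compounds, final 0.05 nM–50 μM, pre-treat HEK-Blue human TLR7, TLR8 or TLR9 reporter cells before agonist addition (TLR8 R848 15.9 μM; TLR7 gardiquimod 7.5 μM; TLR9 ODN2006 5 nM). Incubation runs 22 h, 37 °C. SEAP detection gives percent inhibition against DMSO and reference-inhibitor controls.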

[2] = molecular target: T2, human TLR7 (Homo sapiens, UniProt Q9NYK1); test: TLR7 inhibition reporter assay (HEK-Blue SEAP); settings: HEK-Blue cells overexpressing human TLR7, stimulated with gardiquimod 7.5 μM, 22 hour incubation
T2 construct: host or cells: HEK-Blue cells
T2 sequence (Q9NYK1 27-1049): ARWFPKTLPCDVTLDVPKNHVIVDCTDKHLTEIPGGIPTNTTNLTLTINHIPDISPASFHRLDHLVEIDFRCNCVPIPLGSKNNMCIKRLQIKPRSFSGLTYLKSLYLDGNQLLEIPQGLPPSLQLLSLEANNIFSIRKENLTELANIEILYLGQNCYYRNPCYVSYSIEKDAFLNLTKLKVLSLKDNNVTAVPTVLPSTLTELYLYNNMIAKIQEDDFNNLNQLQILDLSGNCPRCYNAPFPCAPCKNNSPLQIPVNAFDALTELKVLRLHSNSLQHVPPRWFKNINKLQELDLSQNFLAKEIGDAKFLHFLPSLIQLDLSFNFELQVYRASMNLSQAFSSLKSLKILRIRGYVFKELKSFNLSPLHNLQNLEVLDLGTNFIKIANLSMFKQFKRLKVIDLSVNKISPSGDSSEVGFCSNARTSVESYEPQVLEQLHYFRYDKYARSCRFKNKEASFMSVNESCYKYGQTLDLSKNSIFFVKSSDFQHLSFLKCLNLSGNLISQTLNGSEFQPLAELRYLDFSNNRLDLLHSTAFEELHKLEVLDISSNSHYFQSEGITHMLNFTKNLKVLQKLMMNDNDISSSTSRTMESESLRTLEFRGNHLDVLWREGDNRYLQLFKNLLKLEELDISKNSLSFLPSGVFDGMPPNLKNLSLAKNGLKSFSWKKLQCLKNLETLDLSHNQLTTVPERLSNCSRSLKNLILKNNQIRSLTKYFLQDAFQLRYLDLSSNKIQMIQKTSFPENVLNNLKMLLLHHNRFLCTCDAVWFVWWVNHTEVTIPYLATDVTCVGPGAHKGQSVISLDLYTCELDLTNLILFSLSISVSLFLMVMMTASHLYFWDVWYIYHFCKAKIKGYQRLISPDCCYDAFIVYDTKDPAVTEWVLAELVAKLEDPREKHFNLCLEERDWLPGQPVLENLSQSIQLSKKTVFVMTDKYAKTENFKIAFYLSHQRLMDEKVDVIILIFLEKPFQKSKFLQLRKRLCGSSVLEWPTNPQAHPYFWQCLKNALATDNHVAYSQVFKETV
Summary of the method: as §1

[3] = molecular target: T3, human TLR8 (Homo sapiens, UniProt Q9NR97); test: TLR8 inhibition reporter assay (HEK-Blue SEAP); settings: HEK-Blue cells overexpressing human TLR8, stimulated with R848 15.9 μM, 22 hour incubation
T3 construct: host or cells: HEK-Blue cells
T3 sequence (Q9NR97 27-1041): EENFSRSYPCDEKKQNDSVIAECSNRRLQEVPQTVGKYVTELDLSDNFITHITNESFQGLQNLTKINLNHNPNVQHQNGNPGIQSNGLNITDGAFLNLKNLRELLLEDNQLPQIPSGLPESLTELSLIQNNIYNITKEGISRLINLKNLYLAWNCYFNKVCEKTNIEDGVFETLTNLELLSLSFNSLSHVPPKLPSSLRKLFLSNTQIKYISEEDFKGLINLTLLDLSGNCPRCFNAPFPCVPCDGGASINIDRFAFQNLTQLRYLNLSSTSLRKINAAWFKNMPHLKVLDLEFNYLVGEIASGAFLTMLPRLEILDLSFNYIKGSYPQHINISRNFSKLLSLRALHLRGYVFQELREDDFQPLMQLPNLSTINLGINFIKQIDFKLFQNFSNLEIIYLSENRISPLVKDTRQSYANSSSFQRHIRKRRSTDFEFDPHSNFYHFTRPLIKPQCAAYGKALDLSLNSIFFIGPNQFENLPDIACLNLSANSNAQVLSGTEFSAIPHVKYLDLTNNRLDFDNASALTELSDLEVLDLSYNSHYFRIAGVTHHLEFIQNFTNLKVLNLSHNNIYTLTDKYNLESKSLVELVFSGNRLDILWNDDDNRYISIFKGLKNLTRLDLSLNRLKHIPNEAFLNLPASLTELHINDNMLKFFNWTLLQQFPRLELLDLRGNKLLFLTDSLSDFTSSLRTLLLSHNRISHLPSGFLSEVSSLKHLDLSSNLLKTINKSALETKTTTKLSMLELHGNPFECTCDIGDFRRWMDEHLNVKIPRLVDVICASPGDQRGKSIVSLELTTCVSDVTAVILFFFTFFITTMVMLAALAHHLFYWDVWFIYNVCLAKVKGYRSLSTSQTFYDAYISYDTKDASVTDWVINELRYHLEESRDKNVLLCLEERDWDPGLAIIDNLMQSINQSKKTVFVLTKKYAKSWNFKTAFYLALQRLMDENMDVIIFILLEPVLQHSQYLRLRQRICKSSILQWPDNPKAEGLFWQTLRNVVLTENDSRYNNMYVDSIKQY
Summary of the method: as §1

| Structure (SMILES) | IC50 [1] [nM] | IC50 [2] [nM] | IC50 [3] [nM] |
| --- | --- | --- | --- |
| Cc1cc(-c2[nH]c3ccc(OC4CCN(CC(C)C)CC4)cc3c2C(C)C)cn(C)c1=O [Example 76, 5-(5-((1-isobutylpiperidin-4-yl)oxy)-3-isopropyl-1H-indol-2-yl)-1,3-dimethylpyridin-2(1H)-one] | 5570 | 2.8 | 0.8 |
| Cc1cc(-c2[nH]c3ccc(O[C@H]4CCCNC4)cc3c2C(C)C)cn2ncnc12 [Example 9, (S)-6-(3-isopropyl-5-(piperidin-3-yloxy)-1H-indol-2-yl)-8-methyl-[1,2,4]triazolo[1,5-a]pyridine] | 2270 | 0.8 | 10.6 |
| Cc1cc(-c2[nH]c3ccc(OCC4CCCN(CC(C)(C)O)C4)cc3c2C(C)C)cc(C)n1 (stereo not drawn) [Example 23, 1-(3-(((2-(2,6-dimethylpyridin-4-yl)-3-isopropyl-1H-indol-5-yl)oxy)methyl)piperidin-1-yl)-2-methylpropan-2-ol] | 557 | 9.6 | 4.4 |
| CNC(=O)CN1CCC(COc2ccc3[nH]c(-c4cc(C)c(=O)n(C)c4)c(C(C)C)c3c2)CC1 [Example 111, 2-(4-(((2-(1,5-dimethyl-6-oxo-1,6-dihydropyridin-3-yl)-3-isopropyl-1H-indol-5-yl)oxy)methyl)piperidin-1-yl)-N-methylacetamide] | 46800 | 14.2 | 6.8 |
| Cc1cc(-c2[nH]c3ccc(OC4CCC(OC5CCNCC5)CC4)cc3c2C(C)C)ccn1 (stereo not drawn) [Example 184, 3-isopropyl-2-(2-methylpyridin-4-yl)-5-((4-(piperidin-4-yloxy)cyclohexyl)oxy)-1H-indole] | 5300 | 51.9 | 54.6 |
| CNC(=O)CN1CCC(COc2ccc3[nH]c(-c4cc(C)nc(C)c4)c(C(C)C)c3c2)CC1 [Example 110, 2-(4-(((2-(2,6-dimethylpyridin-4-yl)-3-isopropyl-1H-indol-5-yl)oxy)methyl)piperidin-1-yl)-N-methylacetamide] | 492 | 9.6 | 7.3 |
| Cc1cc(-c2[nH]c3ccc(OCC4CN(C(=O)CN(C)C)C4)cc3c2C(C)C)cn2ncnc12 [Example 107, 2-(dimethylamino)-1-(3-(((3-isopropyl-2-(8-methyl-[1,2,4]triazolo[1,5-a]pyridin-6-yl)-1H-indol-5-yl)oxy)methyl)azetidin-1-yl) ethan-1-one] | 3160 | 0.6 | 9.4 |
| Cc1cc(-c2[nH]c3ccc(OC4CCC(OC5CCNCC5)CC4)cc3c2C(C)C)ccn1 (stereo not drawn) [Example 185, 3-isopropyl-2-(2-methylpyridin-4-yl)-5-((4-(piperidin-4-yloxy)cyclohexyl)oxy)-1H-indole] | 2990 | 50.2 | 22.6 |
| COc1ccc(-c2[nH]c3ccc(O[C@H]4CCNC4)cc3c2C(C)C)cc1OC [Example 170, (S)-2-(3,4-dimethoxyphenyl)-3-isopropyl-5-(pyrrolidin-3-yloxy)-1H-indole] | 1080 | 83.9 | 31.3 |
| Cc1cc(-c2[nH]c3ccc(OCC(=O)N4CCCCC4C4CCNCC4)cc3c2C(C)C)ccn1 (stereo not drawn) [Example 143, 1-([2,4′-bipiperidin]-1-yl)-2-((3-isopropyl-2-(2-methylpyridin-4-yl)-1H-indol-5-yl)oxy)ethan-1-one] | 354 | 330 | 220 |
| Cc1cc(-c2[nH]c3ccc(OC4CCN(C)CC4)cc3c2C(C)C)ccn1 [Example 179, 3-isopropyl-5-((1-methylpiperidin-4-yl)oxy)-2-(2-methylpyridin-4-yl)-1H-indole] | 1440 | 39.7 | 2.5 |
| COCCN1CCC(COc2ccc3[nH]c(-c4ccnc(C)c4)c(C(C)C)c3c2)C1 (stereo not drawn) [Example 194, 3-isopropyl-5-((1-(2-methoxyethyl)pyrrolidin-3-yl)methoxy)-2-(2-methylpyridin-4-yl)-1H-indole] | 1460 | 113 | 13.7 |
| CCc1c(-c2ccnc(C)c2)[nH]c2ccc(OCC3CCN(C)CC3)cc12 [Example 183, 3-ethyl-5-((1-methylpiperidin-4-yl)methoxy)-2-(2-methylpyridin-4-yl)-1H-indole] | 512 | 131 | 12 |
| Cc1cc(-c2[nH]c3ccc(OCCN4CCCC4)cc3c2C(C)C)ccn1 [Example 166, 3-isopropyl-2-(2-methylpyridin-4-yl)-5-(2-(pyrrolidin-1-yl)ethoxy)-1H-indole] | 987 | 65.1 | 3.1 |
| Cc1cc(-c2[nH]c3ccc(OCCN4CCCC4)cc3c2C(C)C)cn2ncnc12 [Example 2, 6-(3-isopropyl-5-(2-(pyrrolidin-1-yl)ethoxy)-1H-indol-2-yl)-8-methyl-[1,2,4]triazolo[1,5-a]pyridine] | 2140 | 1 | 1.6 |
